Data published in patent US20240150313A1, “TRI-SUBSTITUTED INDOLE BINDING FUNCTION 3 (BF3) COMPOUNDS AND METHODS FOR THEIR USE” (The University of British Columbia, priority 2021, published 2024).
Entries after “also recorded” stand apart in the source; their conditions may differ.

Key:
[1] = tested on: AR-mediated PSA expression in LNCaP cells; assay: Prostate-Specific Antigen (PSA) assay; format: cell-based, human; conditions: Table 6
Protocol: Prostate-Specific Antigen (PSA) Assay: The evaluation of PSA levels secreted into the media was performed in parallel to the eGFP assay using the same plates.

[2] = Water solubility for dosing formulation; format: physicochemical; conditions: required concentration 3.75 mg/mL
Protocol: 13822 was water soluble and was formulated as plain aqueous solution at 3.75 mg/mL. […] A formulation screen was conducted to use various pharmaceutically acceptable surfactants and additives to develop a low organic solution or metastable heterogeneous suspension suitable for oral dosing.

[3] = Drug concentration in mouse blood and brain (HPLC, fluorescence); format: in vivo, mice (C57 Black 6)
Protocol: A Halo5 C18 column was used (3.0×50 mm, 5 μm particle size; injection volume: 1 μL) having a mobile phase A: 10% acetonitrile, 90% water, 10 mM NH4HCO3 and a mobile phase B: 80% acetonitrile, 20% water, 10 mM NH4HCO3, with a flow rate: 0.7 mL/min.
The dosing solutions were given to mice (C57 Black 6) by oral gavage at 8 μL per gram of body weight (rounded to the nearest 10 μL), corresponding to 30 mg/kg. After 3 h, the animals were euthanized, and then blood and brain samples were collected and stored at 4° C. until analysis.
Blood samples (clotted) were centrifuged at 9,000 RPM for 2 min×2. Aliquots of the serum (30 μL) were placed in 150 μL micro-centrifuge tubes and acetonitrile (30 μL) were added. The mixture was vortexed briefly and allowed to stand at room temperature for 30 min. Full brains were weighed into 2 mL micro-centrifuge tubes and equal amount of acetonitrile (w/v) was added. […] The samples were centrifuged at 9000 RPM for 2 min×2. The supernatants were transferred to HPLC sample vials with conical inserts, and then analyzed by HPLC.
All compounds were dosed orally to mice, and after 3 hours, the animals were euthanized and blood and brain samples were collected. Drug levels were analyzed by HPLC equipped with a fluorescence detector as described herein.

[4] = molecular target: T1, androgen receptor (AR) transcriptional activity (Homo sapiens, UniProt P10275, T878A); assay: eGFP cellular AR transcription assay; conditions: for AR inhibition activity: eGFP assay; for IC50-eGFP: Table 4, substitution on quinoline moiety of VPC-13566
T1 sequence (P10275 1-920 T878A): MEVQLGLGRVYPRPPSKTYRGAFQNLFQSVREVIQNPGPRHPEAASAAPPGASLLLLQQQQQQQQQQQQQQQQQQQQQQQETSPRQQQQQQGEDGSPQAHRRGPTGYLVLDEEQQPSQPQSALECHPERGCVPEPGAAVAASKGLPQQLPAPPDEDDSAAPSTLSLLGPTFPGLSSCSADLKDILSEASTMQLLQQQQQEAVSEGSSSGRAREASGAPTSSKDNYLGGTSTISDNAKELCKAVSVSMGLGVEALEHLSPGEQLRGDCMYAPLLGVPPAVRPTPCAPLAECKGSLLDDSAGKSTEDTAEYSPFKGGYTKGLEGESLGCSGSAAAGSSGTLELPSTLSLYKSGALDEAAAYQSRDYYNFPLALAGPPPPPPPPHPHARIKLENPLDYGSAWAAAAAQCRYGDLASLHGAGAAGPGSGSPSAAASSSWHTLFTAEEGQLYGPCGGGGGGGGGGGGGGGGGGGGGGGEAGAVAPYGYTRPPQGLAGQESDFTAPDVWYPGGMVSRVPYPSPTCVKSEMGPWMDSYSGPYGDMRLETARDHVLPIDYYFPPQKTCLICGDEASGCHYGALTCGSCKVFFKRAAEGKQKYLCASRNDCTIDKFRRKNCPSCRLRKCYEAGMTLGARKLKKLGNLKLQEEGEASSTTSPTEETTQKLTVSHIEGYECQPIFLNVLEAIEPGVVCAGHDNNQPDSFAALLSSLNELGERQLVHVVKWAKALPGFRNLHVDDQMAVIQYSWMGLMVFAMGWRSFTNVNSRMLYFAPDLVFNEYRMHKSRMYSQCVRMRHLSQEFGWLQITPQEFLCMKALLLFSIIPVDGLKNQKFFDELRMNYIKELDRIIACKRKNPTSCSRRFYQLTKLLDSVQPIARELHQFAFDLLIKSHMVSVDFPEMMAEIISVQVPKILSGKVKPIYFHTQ

[5] = tested on: AR protein-protein interactions on chromatin; assay: RIME of the AR interactome; conditions: DHT treated cells
[6] = tested on: nuclear accumulation of exogenous (293T) or endogenous (LNCaP) AR; assay: AR nuclear translocation; format: cell-based; conditions: 293T (exogenous) or LNCaP (endogenous), DHT
Source text: B) Heatmap of genes from the GSEA-MySigDB “Hallmark androgen response”. […] D) Nuclear translocation of exogenous (AR-eGFP in 293T) or endogenous (LNCaP) AR following treatment with DHT.

[7] = tested on: LNCaP cells; assay: Cell viability / proliferation assay (Prestoblue), LNCaP; format: cell-based, human; conditions: 0.1 nM R1881
Protocol: (§1) After 3 days of treatment, cell density was measured using the Prestoblue™ assay (Thermo Fisher Scientific™).

[8] = tested on: chromatin binding of AR to enhancers near KLK3 and FKBP5; assay: ChIP-PCR of AR binding sites; format: cell-based
[9] = Microsomal stability (half-life); format: in vitro ADME, human; conditions: for half-life: Table 6
[10] = molecular target: androgen binding site (ABS) of recombinant wild type LBD (Rattus norvegicus, UniProt P15207)
Sequence of androgen binding site (ABS) of recombinant wild type LBD (P15207 651-882 limits assumed): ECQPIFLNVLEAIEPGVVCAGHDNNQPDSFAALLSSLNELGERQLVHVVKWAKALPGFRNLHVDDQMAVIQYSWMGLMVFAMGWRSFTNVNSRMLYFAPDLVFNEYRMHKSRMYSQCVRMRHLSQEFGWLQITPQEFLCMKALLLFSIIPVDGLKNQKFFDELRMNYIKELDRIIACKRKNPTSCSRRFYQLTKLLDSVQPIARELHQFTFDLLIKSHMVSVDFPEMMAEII

[11] = tested on: androgen-mediated transcription in LNCaP cells; assay: RNA-seq / GSEA on LNCaP cells; format: cell-based, human; conditions: for GSEA normalized enrichment score (canonical AR genes): 10 nM DHT; for differentially expressed genes / downregulated genes / upregulated genes: compared to vehicle; for p53 pathway: with androgen
[12] = tested on: PC3 (AR negative) cells; assay: Cell viability / proliferation assay (Prestoblue), PC3; format: cell-based, human
Protocol: as §1

[13] = tested on: LNCaP xenograft castration-resistant mouse model; assay: Castration-resistant LNCaP xenograft: serum PSA and tumour growth; format: in vivo; conditions: oral treatment, listed as 13789 prodrug
Protocol: Assessment of Prostate […] Antigen and Tumour Growth for Castration-resistant LNCaP Xenografts: 6-8-Week-old nude mice (Harlan Sprague-Dawley) weighing 25-31 g were subcutaneously inoculated with LNCaP cells ([…] in BD Matrigel, BD Biosciences) at the posterior dorsal site. Tumor volume, body weight, and serum PSA levels were measured weekly. Mice were castrated when serum PSA levels reached 50 ng/ml. […] Calipers were used to measure the three perpendicular axes of each tumor to calculate the tumor volume.

[14] = Conversion of prodrug to parent drug in tissue homogenate; format: in vitro ADME; conditions: mouse small intestine tissue homogenate
[15] = human, microsomes, read-out: Half-life

Molecule: 2-(2-(5,6,7-Trifluoro-1H-indol-3-yl)quinolin-5-yl)thiazole [Compound 13801]
- IC50 [1]: > 10000 nM

Molecule: Cc1cccc2c(-c3ccc4ccccc4n3)c[nH]c12 [Compound 13566, 2-(7-Methyl-1H-indol-3-yl)quinoline]
- solubility in water [2]: not soluble in water at the required concentration
- blood concentration level ([3]; compared with 13789): much lower
- penetration of the blood-brain-barrier ([3]; mice, 3 hour time point): significantly penetrated the blood-brain-barrier

Molecule: Cc1ccc2c(-c3ccc4ccccc4n3)c[nH]c2c1F [Compound 13619]
- AR inhibition activity [4]: weaker or even inactive

Molecule: Cc1cccc2c(-c3ccc4c(O)cccc4n3)c[nH]c12 [Compound 13620]
- IC50-eGFP [4]: inactive

Molecule: Cc1cccc2c(-c3ccc4c(F)cccc4n3)c[nH]c12 [Compound 13623]
- IC50-eGFP [4]: inactive

Molecule: Fc1cc(Cl)cc2c(-c3ccc4ccccc4n3)c[nH]c12 [Compound 13641]
- AR inhibition activity [4]: weaker or even inactive

Molecule: CNC(=O)c1cccc2nc(-c3c[nH]c4c(F)c(F)c(F)cc34)ccc12 [Compound 13719]
- IC50 ([1]; Homo sapiens, LNCaP): 130 nM

Molecule: CC(C)NC(=O)c1cccc2nc(-c3c[nH]c4c(F)c(F)c(F)cc34)ccc12 [Compound 13789, N-isopropyl-2-(5,6,7-trifluoro-1H-indol-3-yl)quinoline-5-carboxamide]
- AR protein-protein interactions disrupted (of 112 enriched) [5]: 34
- IC50 ([1]; Homo sapiens, LNCaP): 80 nM
- nuclear accumulation of AR [6]: only marginally affected nuclear accumulation
- effect on growth of LNCaP cells [7]: concentration-dependent inhibition of growth; also recorded: significant decrease in the growth
- chromatin binding of AR [8]: significantly reduced the chromatin binding of AR
- microsome stability [9]: good microsome stability
- half-life [9]: 206 (206.26)
- % Disp. @ 1 uM (DHT displacement from the ABS site) ([10]; 1 uM): 4 ± 3.8%
- ABS inhibition ([10]; 10 μM): no significant ABS inhibition
- DHT displacement from ABS ([10]; various concentrations): Very little displacement
- GSEA normalized enrichment score (canonical AR genes) [11]: −3.33
- differentially expressed genes [11]: 1514 genes
- downregulated genes [11]: 967
- upregulated genes [11]: 547
- p53 pathway [11]: upregulation of the p53 pathway
- effect on growth of PC3 cells [12]: not with AR-independent PC3 cells; also recorded: did not exhibit any inhibitory effect
- metabolic stability judged from polar peaks in chromatograms ([3]; serum and brain samples): metabolically more stable

Molecule: CN(C)C(=O)c1cccc2nc(-c3c[nH]c4c(F)c(F)c(F)cc34)ccc12 [Compound 13791]
- IC50 ([1]; Homo sapiens, LNCaP): > 10000 nM
- IC50 [4]: > 10000 nM

Molecule: Fc1cc2c(-c3ccc4c(-c5cncs5)cccc4n3)c[nH]c2c(F)c1F [Compound 13793, 5-(2-(5,6,7-Trifluoro-1H-indol-3-yl)quinolin-5-yl)thiazole]
- IC50 ([1]; Homo sapiens, LNCaP): 330 nM
- half-life [9, 15]: 1.73 h

Molecule: Fc1cc2c(-c3ccc4c(-c5cnco5)cccc4n3)c[nH]c2c(F)c1F [Compound 13794]
- IC50 ([1]; Homo sapiens, LNCaP): > 10000 nM
- IC50 [4]: > 10000 nM

Molecule: O=C(NC1CC1)c1cccc2nc(-c3c[nH]c4c(F)c(F)c(F)cc34)ccc12 [Compound 13795, N-Cyclopropyl-2-(5,6,7-trifluoro-1H-indol-3-yl)quinoline-5-carboxamide]
- IC50 ([1]; Homo sapiens, LNCaP): 230 nM
- microsome stability [9]: good microsome stability
- half-life [9, 15]: 4.35 h

Molecule: CNC(=O)c1c(F)ccc2nc(-c3c[nH]c4c(F)c(F)c(F)cc34)ccc12 [Compound 13796]
- IC50 ([1]; Homo sapiens, LNCaP): 950 nM
- IC50 [4]: 5480 nM

Molecule: O=C(NC1CC1)c1c(F)ccc2nc(-c3c[nH]c4c(F)c(F)c(F)cc34)ccc12 [Compound 13797]
- IC50 ([1]; Homo sapiens, LNCaP): 1500 nM
- IC50 [4]: 1980 nM

Molecule: Fc1cc2c(-c3ccc4c(-c5cncs5)c(F)ccc4n3)c[nH]c2c(F)c1F [Compound 13799]
- IC50 ([1]; Homo sapiens, LNCaP): 750 nM
- IC50 [4]: 560 nM

Molecule: CC(C)NC(=O)c1c(F)ccc2nc(-c3c[nH]c4c(F)c(F)c(F)cc34)ccc12 [Compound 13802]
- IC50 ([1]; Homo sapiens, LNCaP): > 10000 nM
- IC50 [4]: > 10000 nM

Molecule: CN(C)C(=O)c1c(F)ccc2nc(-c3c[nH]c4c(F)c(F)c(F)cc34)ccc12 [Compound 13803]
- IC50 [4]: > 10000 nM

Molecule: OC(c1cccc2nc(-c3c[nH]c4c(F)c(F)c(F)cc34)ccc12)C(F)(F)F (stereo not drawn) [Compound 13804]
- IC50 [4]: 32000 nM

Molecule: O=C(NCC1CC1)c1cccc2nc(-c3c[nH]c4c(F)c(F)c(F)cc34)ccc12 [Compound 13807, N-(Cyclopropylmethyl)-2-(5,6,7-trifluoro-1H-indol-3-yl)quinoline-5-carboxamide]
- IC50 ([1]; Homo sapiens, LNCaP): 160 nM
- microsome stability [9]: good microsome stability

Molecule: O=C(NCC(F)F)c1cccc2nc(-c3c[nH]c4c(F)c(F)c(F)cc34)ccc12 [Compound 13808, N-(2,2-Difluoroethyl)-2-(5,6,7-trifluoro-1H-indol-3-yl)quinoline-5-carboxamide]
- microsome stability [9]: good microsome stability

Molecule: CC(C)NC(=O)c1cccc2nc(-c3cn(COP(=O)(O)O)c4c(F)c(F)c(F)cc34)ccc12 [Compound 13822]
- tumour volume / growth in xenograft ([13]; up to 5 weeks): reduces tumor volume; also recorded: inhibited tumour growth to levels comparable with enzalutamide treatment
- serum PSA production in xenograft [13]: inhibits PSA production; also recorded: reducing serum PSA levels
- solubility in water [2]: water soluble
- half-life [14]: ~2 h

Molecule: CNC(=O)c1ccc(N2C(=S)N(c3ccc(C#N)c(C(F)(F)F)c3)C(=O)C2(C)C)cc1F [Enzalutamide, reference compound]
- GSEA normalized enrichment score (canonical AR genes) [11]: −2.31
- differentially expressed genes [11]: 586 genes
- downregulated genes [11]: 372
- upregulated genes [11]: 214
- p53 pathway [11]: not observed
